Experimental data reported in patent US12152020B2, “Pesticidally active azole-amide compounds” (SYNGENTA PARTICIPATIONS AG, priority 2018, dated 2024).

Assays:
Type in all cases: in vivo
[1] = tested on: Myzus persicae (Green Peach Aphid); experiment: Example B13: Myzus persicae, sucrose solution under Parafilm, 96-well; conditions: 120 h, application rate of 50 ppm, 5 days after infestation
Summary of the method: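 Compounds from 10′000 ppm DMSO stocks mixed into sucrose solution, with aphids feeding through a Parafilm membrane in inverted plates. Mortality assessed 5 days after infestation.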

[2] = tested on: Spodoptera littoralis (Egyptian Cotton Leaf Worm); experiment: Example B10: Spodoptera littoralis, uptake by lettuce roots from agar, eggs; conditions: 144 h, test rate of 12.5 ppm, lettuce root uptake, 6 days after infestation, in comparison to untreated samples, read-out: effect in at least one of the three categories (mortality, anti-feeding, or growth inhibition)
From the text: Example B10: Spodoptera littoralis (Egyptian Cotton Leaf Worm)
Test compounds were applied by pipette from 10′000 ppm DMSO stock solutions into 24-well plates and mixed with agar. Lettuce seeds were placed onto the agar and the multi well plate was closed by another plate which contained also agar. After 7 days the compound was absorbed by the roots and the lettuce grew into the lid plate. The lettuce leaves were then cut off into the lid plate. Spodoptera eggs were pipetted through a plastic stencil onto a humid gel blotting paper and the lid plate was closed with it. The samples were assessed for mortality, anti-feedant effect and growth inhibition in comparison to untreated samples 6 days after infestation.
The following compounds gave an effect of at least 80% in at least one of the three categories (mortality, anti-feeding, or growth inhibition) at a test rate of 12.5 ppm: • P3, P15, P32

[3] = tested on: Spodoptera littoralis (Egyptian Cotton Leaf Worm); experiment: Example B9: Spodoptera littoralis, cotton leaf discs sprayed, L1 larvae; conditions: foliar, 72 h, application rate of 200 ppm, five L1 larvae, 3 days after infestation, in comparison to untreated samples, read-out: control in at least one of the categories (mortality, anti-feedant effect, or growth inhibition)
Summary of the method: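 Cotton leaf discs on agar sprayed with aqueous solutions made from 10′000 ppm DMSO stocks, dried, then infested with five L1 larvae. Mortality, anti-feeding and growth inhibition assessed against untreated samples 3 days after infestation; control counted when any category exceeded untreated.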

[4] = tested on: Myzus persicae (Green Peach Aphid); experiment: Example B6: Myzus persicae feeding/contact activity, sunflower leaf discs; conditions: foliar, 144 h, application rate of 200 ppm, aphid population of mixed ages, 6 days after infestation
Description: Example B6: Myzus persicae (Green Peach Aphid): Feeding/Contact Activity
Sunflower leaf discs were placed onto agar in a 24-well microtiter plate and sprayed with aqueous test solutions prepared from 10′000 ppm DMSO stock solutions. After drying, the leaf discs were infested with an aphid population of mixed ages. The samples were assessed for mortality 6 days after infestation.

[5] = tested on: Euschistus heros (Neotropical Brown Stink Bug); experiment: Example B2: Euschistus heros, soybean leaves sprayed, N2 nymphs; conditions: 120 h, application rate of 200 ppm, 5 days after infestation, in comparison to untreated samples, read-out: effect in at least one of the two categories (mortality or growth inhibition)
Description: Example B2: Euschistus heros (Neotropical Brown Stink Bug)
Soybean leaves on agar in 24-well microtiter plates were sprayed with aqueous test solutions prepared from 10′000 ppm DMSO stock solutions. After drying the leaves were infested with N2 nymphs. The samples were assessed for mortality and growth inhibition in comparison to untreated samples 5 days after infestation.
The following compounds gave an effect of at least 80% in at least one of the two categories (mortality or growth inhibition) at an application rate of 200 ppm: • P1, P2, P3, P7, P11, P12, P16, P17, P18, P22, P25, P29, P32, P33, P37, P38

[6] = tested on: Chilo suppressalis (Striped Rice Stemborer); experiment: Example B4: Chilo suppressalis, artificial diet, L2 larvae; conditions: 144 h, application rate of 200 ppm, 6 days after infestation, in comparison to untreated samples, read-out: control in at least one of the categories (mortality, anti-feedant effect, or growth inhibition)
Summary of the method: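 Artificial diet was treated with aqueous dilutions made from 10'000 ppm DMSO stocks, dried, then infested with L2 larvae at 6–8 per well. Mortality, antifeedant effect and growth inhibition were assessed against untreated samples 6 days after infestation.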

[7] = tested on: Plutella xylostella (Diamondback Moth); experiment: Example B14: Plutella xylostella, artificial diet in 96-well plates, eggs; conditions: 216 h, application rate of 500 ppm, 9 days after infestation
Summary of the method: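 Artificial diet in microtiter wells treated with aqueous dilutions of DMSO stocks, dried, then infested with ~30 eggs per well; hatching L1 larvae feed on treated diet. Mortality scored 9 days after infestation.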

[8] = tested on: Myzus persicae (Green Peach Aphid); experiment: Example B8: Myzus persicae intrinsic activity, sucrose solution under Parafilm, 24-well; conditions: 120 h, test rate of 12 ppm, 5 days after infestation
Summary of the method: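 Compounds, diluted from 10′000 ppm DMSO stocks, were mixed with sucrose solution in wells sealed with stretched Parafilm. Aphid-infested pea seedlings were placed on the Parafilm, and the covered plate was turned upside down. Mortality was scored 5 days after infestation.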

[9] = tested on: Plutella xylostella (Diamond Back Moth); experiment: Example B5: Plutella xylostella, artificial diet in 24-well plates, eggs; conditions: 192 h, application rate of 200 ppm, 8 days after infestation, in comparison to untreated samples, read-out: effect in at least one of the two categories (mortality or growth inhibition)
Summary of the method: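 Artificial diet in 24-well plates treated with aqueous test solutions made from 10′000 ppm DMSO stocks, dried, then infested with Plutella eggs. Mortality and growth inhibition scored against untreated samples 8 days after infestation.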

[10] = tested on: Diabrotica balteata (Corn Root Worm); experiment: Example B1: Diabrotica balteata, maize sprouts sprayed, L2 larvae; conditions: 96 h, application rate of 200 ppm, 4 days after infestation, in comparison to untreated samples, read-out: effect in at least one of the two categories (mortality or growth inhibition)
Summary of the method: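 Maize sprouts on agar sprayed with aqueous test solutions made from 10′000 ppm DMSO stocks, dried, then infested with 6–10 L2 larvae per well. Mortality and growth inhibition scored against untreated samples 4 days after infestation.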

[11] = tested on: Thrips tabaci (Onion thrips); experiment: Example B12: Thrips tabaci feeding/contact activity, sunflower leaf discs; conditions: foliar, 144 h, application rate of 200 ppm, thrips population of mixed ages, 6 days after infestation
Description: Example B12: Thrips tabaci (Onion thrips): Feeding/Contact Activity
Sunflower leaf discs were placed on agar in 24-well microtiter plates and sprayed with aqueous test solutions prepared from 10′000 ppm DMSO stock solutions. After drying the leaf discs were infested with a thrips population of mixed ages. The samples were assessed for mortality 6 days after infestation.

[12] = tested on: Myzus persicae (Green Peach Aphid); experiment: Example B7: Myzus persicae systemic activity, pea seedling roots in test solution; conditions: 144 h, test rate of 24 ppm, 6 days after placing seedlings into test solutions
Description: Example B7: Myzus persicae (Green Peach Aphid): Systemic Activity
Roots of pea seedlings infested with an aphid population of mixed ages were placed directly into aqueous test solutions prepared from 10′000 DMSO stock solutions. The samples were assessed for mortality 6 days after placing seedlings into test solutions.

CC(c1nc(Br)nn1-c1ncccn1)N(C)C(=O)c1cc(C(F)(F)F)cc(C(F)(F)F)c1 (centres unmarked) [Compound P3, N-[1-(5-bromo-2-pyrimidin-2-yl-1,2,4-triazol-3-yl)ethyl]-N-methyl-3,5-bis(trifluoromethyl)benzamide]
≥ 80%: mortality at 50 ppm [1] | percent effect (mortality, anti-feeding or growth inhibition) at 12.5 ppm [2] | percent control (mortality, anti-feedant effect or growth inhibition) at 200 ppm [3] | mortality at 200 ppm [4] | percent effect (mortality or growth inhibition) at 200 ppm [5] | percent control (mortality, anti-feedant effect or growth inhibition) at 200 ppm [6] | mortality at 500 ppm [7] | mortality at 12 ppm [8] | percent effect (mortality or growth inhibition) at 200 ppm [9] | percent effect (mortality or growth inhibition) at 200 ppm [10]

CC(c1nc(N)nn1-c1ncccn1)N(C)C(=O)c1cc(C(F)(F)F)cc(C(F)(F)F)c1 (centres unmarked) [Compound P7, N-[1-(5-amino-2-pyrimidin-2-yl-1,2,4-triazol-3-yl)ethyl]-N-methyl-3,5-bis(trifluoromethyl)benzamide]
≥ 80%: mortality at 50 ppm [1] | percent control (mortality, anti-feedant effect or growth inhibition) at 200 ppm [3] | mortality at 200 ppm [4] | percent effect (mortality or growth inhibition) at 200 ppm [5] | mortality at 500 ppm [7] | mortality at 200 ppm [11] | mortality at 12 ppm [8] | percent effect (mortality or growth inhibition) at 200 ppm [9] | percent effect (mortality or growth inhibition) at 200 ppm [10]

CC(c1nc(Cl)nn1-c1ncccn1)N(C)C(=O)c1cc(C(F)(F)F)cc(C(F)(F)F)c1 (centres unmarked) [Compound P15, N-[1-(5-chloro-2-pyrimidin-2-yl-1,2,4-triazol-3-yl)ethyl]-N-methyl-3,5-bis(trifluoromethyl)benzamide]
≥ 80%: mortality at 50 ppm [1] | percent effect (mortality, anti-feeding or growth inhibition) at 12.5 ppm [2] | percent control (mortality, anti-feedant effect or growth inhibition) at 200 ppm [3] | mortality at 500 ppm [7] | percent effect (mortality or growth inhibition) at 200 ppm [9] | percent effect (mortality or growth inhibition) at 200 ppm [10]

CC(=O)Nc1nc(C(C)N(C)C(=O)c2cc(C(F)(F)F)cc(C(F)(F)F)c2)n(-c2ncccn2)n1 (centres unmarked) [Compound P17, N-[1-(5-acetamido-2-pyrimidin-2-yl-1,2,4-triazol-3-yl)ethyl]-N-methyl-3,5-bis(trifluoromethyl) benzamide]
≥ 80%: mortality at 24 ppm [12] | mortality at 50 ppm [1] | percent control (mortality, anti-feedant effect or growth inhibition) at 200 ppm [3] | mortality at 200 ppm [4] | percent effect (mortality or growth inhibition) at 200 ppm [5] | mortality at 500 ppm [7] | mortality at 200 ppm [11] | mortality at 12 ppm [8] | percent effect (mortality or growth inhibition) at 200 ppm [9] | percent effect (mortality or growth inhibition) at 200 ppm [10]

CNc1nc(C(C)N(C)C(=O)c2cc(C(F)(F)F)cc(C(F)(F)F)c2)n(-c2ncccn2)n1 (centres unmarked) [Compound P18, N-methyl-N-[1-[5-(methylamino)-2-pyrimidin-2-yl-1,2,4-triazol-3-yl]ethyl]-3,5-bis(trifluoromethyl) benzamide]
≥ 80%: mortality at 50 ppm [1] | percent control (mortality, anti-feedant effect or growth inhibition) at 200 ppm [3] | mortality at 200 ppm [4] | percent effect (mortality or growth inhibition) at 200 ppm [5] | mortality at 500 ppm [7] | mortality at 200 ppm [11] | mortality at 12 ppm [8] | percent effect (mortality or growth inhibition) at 200 ppm [9] | percent effect (mortality or growth inhibition) at 200 ppm [10]

CC(c1nc(N=C(c2ccccc2)c2ccccc2)nn1-c1ncccn1)N(C)C(=O)c1cc(C(F)(F)F)cc(C(F)(F)F)c1 (centres unmarked) [Compound P22, N-[1-[5-(benzhydrylideneamino)-2-pyrimidin-2-yl-1,2,4-triazol-3-yl]ethyl]-N-methyl-3,5-bis(trifluoromethyl)benzamide]
≥ 80%: mortality at 50 ppm [1] | percent control (mortality, anti-feedant effect or growth inhibition) at 200 ppm [3] | mortality at 200 ppm [4] | percent effect (mortality or growth inhibition) at 200 ppm [5] | mortality at 500 ppm [7] | mortality at 200 ppm [11] | mortality at 12 ppm [8] | percent effect (mortality or growth inhibition) at 200 ppm [9] | percent effect (mortality or growth inhibition) at 200 ppm [10]

CC(NC(=O)c1cc(Cl)cc(OC(F)(F)F)c1)c1nc(Br)nn1-c1ncccn1 (centres unmarked) [Compound P32, N-[1-(5-bromo-2-pyrimidin-2-yl-1,2,4-triazol-3-yl)ethyl]-3-chloro-5-(trifluoromethoxy)ben zamide]
≥ 80%: mortality at 50 ppm [1] | percent effect (mortality, anti-feeding or growth inhibition) at 12.5 ppm [2] | percent control (mortality, anti-feedant effect or growth inhibition) at 200 ppm [3] | percent effect (mortality or growth inhibition) at 200 ppm [5] | percent control (mortality, anti-feedant effect or growth inhibition) at 200 ppm [6] | mortality at 500 ppm [7] | mortality at 12 ppm [8] | percent effect (mortality or growth inhibition) at 200 ppm [9] | percent effect (mortality or growth inhibition) at 200 ppm [10]
